{
  "source": "patent US11104674B2",
  "about": "(Hoffmann-La Roche Inc., priority 2016, dated 2021)",
  "data": [
    {"tested_on": "HBsAg", "assay": "HBsAg assay (chemiluminescence immunoassay of secreted HBsAg)", "assay_type": "cell-based, HBV", "details": "Hepatitis B virus, HepG2.2.15, HBsAg secretion, HepG2.2.15 cells, CLIA of culture supernatant", "summary_of_the_method": "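HepG2.2.15 cells, in duplicate, treated with three-fold serial compound dilutions (1% DMSO final); secreted HBsAg in supernatant quantified by chemiluminescence immunoassay; IC50 is the concentration reducing HBsAg secretion by 50% versus the DMSO control.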", "units": {"IC50": "µM"}, "values": [
      {"smiles": "CC1c2cnc(-c3ncccn3)nc2CCN1c1cc(N2CCC(C(=O)NS(C)(=O)=O)CC2)cc(F)n1", "note": "(centres unmarked) [Example 66, 1-[2-fluoro-6-(5-methyl-2-pyrimidin-2-yl-7,8-dihydro-5H-pyrido[4,3-d]pyrimidin-6-yl)-4-pyridyl]-N-methylsulfonyl-piperidine-4-carboxamide]", "IC50": 1.94},
      {"smiles": "CC1c2cnc(-c3ccccn3)nc2CCN1c1cc(F)cc(N2CCC(C(=O)O)C2)n1", "note": "(centres unmarked) [Example 67, 1-[4-fluoro-6-[5-methyl-2-(2-pyridyl)-7,8-dihydro-5H-pyrido[4,3-d]pyrimidin-6-yl]-2-pyridyl]pyrrolidine-3-carboxylic acid]", "IC50": 0.532},
      {"smiles": "CC1c2cnc(-c3ccccn3)nc2CCN1c1cc(N2CCC(C(=O)O)C2)cc(F)n1", "note": "(centres unmarked) [Example 68, 1-[2-fluoro-6-[5-methyl-2-(2-pyridyl)-7,8-dihydro-5H-pyrido[4,3-d]pyrimidin-6-yl]-4-pyridyl]pyrrolidine-3-carboxylic acid]", "IC50": 0.215},
      {"smiles": "CC(=O)N1CCN(c2cc(F)nc(N3CCc4nc(-c5ccccn5)ncc4C3C)c2)CC1", "note": "(centres unmarked) [Example 69, 1-[4-[2-fluoro-6-[5-methyl-2-(2-pyridyl)-7,8-dihydro-5H-pyrido[4,3-d]pyrimidin-6-yl]-4-pyridyl]piperazin-1-yl]ethanone]", "IC50": 0.014},
      {"smiles": "CC(=O)N1CCN(c2cc(F)cc(N3CCc4nc(-c5ccccn5)ncc4C3C)n2)CC1", "note": "(centres unmarked) [Example 70, 1-[4-[4-fluoro-6-[5-methyl-2-(2-pyridyl)-7,8-dihydro-5H-pyrido[4,3-d]pyrimidin-6-yl]-2-pyridyl]piperazin-1-yl]ethanone]", "IC50": 0.016},
      {"smiles": "CC1c2cnc(-c3ccccn3)nc2CCN1c1cc(N2CCN(S(C)(=O)=O)CC2)cc(F)n1", "note": "(centres unmarked) [Example 71, 6-[6-fluoro-4-(4-methylsulfonylpiperazin-1-yl)-2-pyridyl]-5-methyl-2-(2-pyridyl)-7,8-dihydro-5H-pyrido[4,3-d]pyrimidine]", "IC50": 0.008},
      {"smiles": "CC1c2cnc(-c3ccccn3)nc2CCN1c1cc(F)cc(N2CCN(S(C)(=O)=O)CC2)n1", "note": "(centres unmarked) [Example 72, 6-[4-fluoro-6-(4-methylsulfonylpiperazin-1-yl)-2-pyridyl]-5-methyl-2-(2-pyridyl)-7,8-dihydro-5H-pyrido[4,3-d]pyrimidine]", "IC50": 0.058},
      {"smiles": "CC1c2cnc(-c3ccccn3)nc2CCN1c1cc(N2CCC(C(N)=O)CC2)cc(F)n1", "note": "(centres unmarked) [Example 73, 1-[2-fluoro-6-[5-methyl-2-(2-pyridyl)-7,8-dihydro-5H-pyrido[4,3-d]pyrimidin-6-yl]-4-pyridyl]piperidine-4-carboxamide]", "IC50": 0.01},
      {"smiles": "CC1c2cnc(-c3ccccn3)nc2CCN1c1cc(F)cc(N2CCC(C(N)=O)CC2)n1", "note": "(centres unmarked) [Example 74, 1-[4-fluoro-6-[5-methyl-2-(2-pyridyl)-7,8-dihydro-5H-pyrido[4,3-d]pyrimidin-6-yl]-2-pyridyl]piperidine-4-carboxamide]", "IC50": 0.019},
      {"smiles": "CC1c2cnc(-c3ccccn3)nc2CCN1c1cc(N2CCCC(C(N)=O)C2)cc(F)n1", "note": "(centres unmarked) [Example 75, 1-[2-fluoro-6-[5-methyl-2-(2-pyridyl)-7,8-dihydro-5H-pyrido[4,3-d]pyrimidin-6-yl]-4-pyridyl]piperidine-3-carboxamide]", "IC50": 0.039},
      {"smiles": "CC1c2cnc(-c3ccccn3)nc2CCN1c1cc(F)cc(N2CCCC(C(N)=O)C2)n1", "note": "(centres unmarked) [Example 76, 1-[4-fluoro-6-[5-methyl-2-(2-pyridyl)-7,8-dihydro-5H-pyrido[4,3-d]pyrimidin-6-yl]-2-pyridyl]piperidine-3-carboxamide]", "IC50": 0.044},
      {"smiles": "CC1c2cnc(-c3ncccn3)nc2CCN1c1cc(NS(=O)(=O)c2ccccc2)cc(F)n1", "note": "(centres unmarked) [Example 77, N-[2-fluoro-6-(5-methyl-2-pyrimidin-2-yl-7,8-dihydro-5H-pyrido[4,3-d]pyrimidin-6-yl)-4-pyridyl]benzenesulfonamide]", "IC50": 0.554},
      {"smiles": "CC1c2cnc(-c3ncccn3)nc2CCN1c1cc(F)cc(NS(=O)(=O)c2ccccc2)n1", "note": "(centres unmarked) [Example 78, N-[4-fluoro-6-(5-methyl-2-pyrimidin-2-yl-7,8-dihydro-5H-pyrido[4,3-d]pyrimidin-6-yl)-2-pyridyl]benzenesulfonamide]", "IC50": 0.263},
      {"smiles": "CC1c2cnc(-c3ccccn3)nc2CCN1c1cc(NCC(F)F)cc(F)n1", "note": "(centres unmarked) [Example 79]", "IC50": 0.071},
      {"smiles": "CC1c2cnc(-c3ccccn3)nc2CCN1c1cc(F)cc(NCC(F)F)n1", "note": "(centres unmarked) [Example 80, N-(2,2-difluoroethyl)-4-fluoro-6-[5-methyl-2-(2-pyridyl)-7,8-dihydro-5H-pyrido[4,3-d]pyrimidin-6-yl]pyridin-2-amine]", "IC50": 0.124},
      {"smiles": "CC1c2cnc(-c3ncccn3)nc2CCN1c1cc(F)cc(N2CC(C(N)=O)C2)n1", "note": "(centres unmarked) [Example 81, 1-[4-fluoro-6-(5-methyl-2-pyrimidin-2-yl-7,8-dihydro-5H-pyrido[4,3-d]pyrimidin-6-yl)-2-pyridyl]azetidine-3-carboxamide]", "IC50": 0.206},
      {"smiles": "CC1c2cnc(-c3ncccn3)nc2CCN1c1cc(N2CC(C(N)=O)C2)cc(F)n1", "note": "(centres unmarked) [Example 82, 1-[2-fluoro-6-(5-methyl-2-pyrimidin-2-yl-7,8-dihydro-5H-pyrido[4,3-d]pyrimidin-6-yl)-4-pyridyl]azetidine-3-carboxamide]", "IC50": 0.149},
      {"smiles": "COC1CCN(c2cc(F)nc(N3CCc4nc(-c5ccccn5)ncc4C3C)c2)C1", "note": "(centres unmarked) [Example 83, 6-[6-fluoro-4-(3-methoxypyrrolidin-1-yl)-2-pyridyl]-5-methyl-2-(2-pyridyl)-7,8-dihydro-5H-pyrido[4,3-d]pyrimidine]", "IC50": 0.02},
      {"smiles": "COC1CCN(c2cc(F)cc(N3CCc4nc(-c5ccccn5)ncc4C3C)n2)C1", "note": "(centres unmarked) [Example 84, 6-[4-fluoro-6-(3-methoxypyrrolidin-1-yl)-2-pyridyl]-5-methyl-2-(2-pyridyl)-7,8-dihydro-5H-pyrido[4,3-d]pyrimidine]", "IC50": 0.023},
      {"smiles": "CC1c2cnc(-c3ccccn3)nc2CCN1c1cc(F)cc(N2CCC(C(=O)NS(C)(=O)=O)C2)n1", "note": "(centres unmarked) [Example 85, 1-[4-fluoro-6-[5-methyl-2-(2-pyridyl)-7,8-dihydro-5H-pyrido[4,3-d]pyrimidin-6-yl]-2-pyridyl]-N-methylsulfonyl-pyrrolidine-3-carboxamide]", "IC50": 0.264},
      {"smiles": "CC1c2cnc(-c3ccccn3)nc2CCN1c1cc(N2CCC(C(=O)NS(C)(=O)=O)C2)cc(F)n1", "note": "(centres unmarked) [Example 86, 1-[2-fluoro-6-[5-methyl-2-(2-pyridyl)-7,8-dihydro-5H-pyrido[4,3-d]pyrimidin-6-yl]-4-pyridyl]-N-methylsulfonyl-pyrrolidine-3-carboxamide]", "IC50": 1.24},
      {"smiles": "COCCS(=O)(=O)N1CCN(c2cc(F)nc(N3CCc4nc(-c5ncccn5)ncc4C3C)c2)CC1", "note": "(centres unmarked) [Example 87, 6-[6-fluoro-4-[4-(2-methoxyethylsulfonyl)piperazin-1-yl]-2-pyridyl]-5-methyl-2-pyrimidin-2-yl-7,8-dihydro-5H-pyrido[4,3-d]pyrimidine]", "IC50": 0.005},
      {"smiles": "CC1c2cnc(-c3ncccn3)nc2CCN1c1cc(N2CCC(NS(C)(=O)=O)CC2)cc(F)n1", "note": "(centres unmarked) [Example 88, N-[1-[2-fluoro-6-(5-methyl-2-pyrimidin-2-yl-7,8-dihydro-5H-pyrido[4,3-d]pyrimidin-6-yl)-4-pyridyl]-4-piperidyl]methanesulfonamide]", "IC50": 0.018},
      {"smiles": "CC1c2cnc(-c3ncccn3)nc2CCN1c1cc(F)cc(N2CCC(NS(C)(=O)=O)CC2)n1", "note": "(centres unmarked) [Example 89, N-[1-[4-fluoro-6-(5-methyl-2-pyrimidin-2-yl-7,8-dihydro-5H-pyrido[4,3-d]pyrimidin-6-yl)-2-pyridyl]-4-piperidyl]methanesulfonamide]", "IC50": 0.012},
      {"smiles": "CCS(=O)(=O)N1CCN(c2cc(F)cc(N3CCc4nc(-c5ncccn5)ncc4C3C)n2)CC1", "note": "(centres unmarked) [Example 91, 6-[6-(4-ethylsulfonylpiperazin-1-yl)-4-fluoro-2-pyridyl]-5-methyl-2-pyrimidin-2-yl-7,8-dihydro-5H-pyrido[4,3-d]pyrimidine]", "IC50": 0.012},
      {"smiles": "CC1c2cnc(-c3ncccn3)nc2CCN1c1cc(F)cc(N2CC(C(=O)O)C(C)(C)C2)n1", "note": "(centres unmarked) [Example 92, 1-[4-fluoro-6-(5-methyl-2-pyrimidin-2-yl-7,8-dihydro-5H-pyrido[4,3-d]pyrimidin-6-yl)-2-pyridyl]-4,4-dimethyl-pyrrolidine-3-carboxylic acid]", "IC50": 0.139},
      {"smiles": "CC1c2cnc(-c3ncccn3)nc2CCN1c1cc(N2CCN(CC(=O)O)CC2)cc(F)n1", "note": "(centres unmarked) [Example 94, 2-[4-[2-fluoro-6-(5-methyl-2-pyrimidin-2-yl-7,8-dihydro-5H-pyrido[4,3-d]pyrimidin-6-yl)-4-pyridyl]piperazin-1-yl]acetic acid]", "IC50": 8.86},
      {"smiles": "CC1c2cnc(-c3ncccn3)nc2CCN1c1cc(F)cc(N2CCN(CC(=O)O)CC2)n1", "note": "(centres unmarked) [Example 95, 2-[4-[4-fluoro-6-(5-methyl-2-pyrimidin-2-yl-7,8-dihydro-5H-pyrido[4,3-d]pyrimidin-6-yl)-2-pyridyl]piperazin-1-yl]acetic acid]", "IC50": 3.78},
      {"smiles": "CC1c2cnc(-c3ncccn3)nc2CCN1c1cc(NC2CCN(S(C)(=O)=O)CC2)cc(F)n1", "note": "(centres unmarked) [Example 96, 2-Fluoro-6-(5-methyl-2-pyrimidin-2-yl-7,8-dihydro-5H-pyrido[4,3-d]pyrimidin-6-yl)-N-(1-methylsulfonyl-4-piperidyl)pyridin-4-amine]", "IC50": 0.125},
      {"smiles": "CC1c2cnc(-c3ncccn3)nc2CCN1c1cc(F)cc(N2CCN(S(C)(=O)=O)C(C)(C)C2)n1", "note": "(centres unmarked) [Example 99, 6-[6-(3,3-dimethyl-4-methylsulfonyl-piperazin-1-yl)-4-fluoro-2-pyridyl]-5-methyl-2-pyrimidin-2-yl-7,8-dihydro-5H-pyrido[4,3-d]pyrimidine]", "IC50": 0.026},
      {"smiles": "CC1c2cnc(-c3ncccn3)nc2CCN1c1cc(N2CCN(S(C)(=O)=O)C(C)(C)C2)cc(F)n1", "note": "(centres unmarked) [Example 100, 6-[4-(3,3-dimethyl-4-methylsulfonyl-piperazin-1-yl)-6-fluoro-2-pyridyl]-5-methyl-2-pyrimidin-2-yl-7,8-dihydro-5H-pyrido[4,3-d]pyrimidine]", "IC50": 0.013},
      {"smiles": "CC1c2cnc(-c3ncccn3)nc2CCN1c1cc(F)cc(N2CCN(CC(N)=O)CC2)n1", "note": "(centres unmarked) [Example 101, 2-[4-[4-fluoro-6-(5-methyl-2-pyrimidin-2-yl-7,8-dihydro-5H-pyrido[4,3-d]pyrimidin-6-yl)-2-pyridyl]piperazin-1-yl]acetamide]", "IC50": 0.06}
    ]}
  ]
}
